Data as given in US10351522B2, “Sulfonamide derivative and pharmaceutically acceptable acid addition salt thereof” (UNIVERSITY OF TSUKUBA, priority 2015, dated 2019).
Like-named read-outs stand apart in the source and are kept apart here.

Key:
human OX1R = target: T1, human OX1R (Homo sapiens, UniProt O43613); assay: Agonist activity against OX1R: intracellular calcium (Fura-2AM, FDSS7000) in CHOOX1R cells; assay type: cell-based; details: relative to orexin-A as full agonist (100%); for Emax at 0.1 µM / Emax at 1 µM / Emax at 10 µM: read-out: Response (%) OX1R
T1 construct: expressed in transfected cells; host or cells: CHO (Chinese hamster ovary) cells, line CHOOX1R, co-expressing NFAT-luciferase
T1 sequence (O43613 1-425): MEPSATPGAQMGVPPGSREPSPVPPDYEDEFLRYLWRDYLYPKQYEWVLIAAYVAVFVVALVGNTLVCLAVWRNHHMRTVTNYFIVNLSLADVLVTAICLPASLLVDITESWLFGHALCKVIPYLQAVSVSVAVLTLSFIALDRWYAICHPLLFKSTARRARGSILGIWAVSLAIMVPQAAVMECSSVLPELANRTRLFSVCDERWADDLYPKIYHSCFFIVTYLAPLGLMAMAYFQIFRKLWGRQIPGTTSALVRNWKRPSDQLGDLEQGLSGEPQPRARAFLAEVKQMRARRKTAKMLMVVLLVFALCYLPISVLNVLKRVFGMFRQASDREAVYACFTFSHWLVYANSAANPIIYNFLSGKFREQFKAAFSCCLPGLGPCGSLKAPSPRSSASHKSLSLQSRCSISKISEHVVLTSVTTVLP
Outline: (§1)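 CHO cells stably expressing human OX1R or OX2R (plus NFAT-luciferase) were loaded with 5 μM Fura-2AM for 60 min, then given compound at 10^−7 to 10^−5 M final (1% DMSO). Calcium change read as 340/380 nm excitation fluorescence ratio; response expressed as % of orexin-A maximal activity at 10, 1.0 and 0.1 μM.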

human OX2R = target: T2, human OX2R (Homo sapiens, UniProt O43614); assay: Agonist activity against OX2R: intracellular calcium (Fura-2AM, FDSS7000) in CHOOX2R cells; assay type: cell-based; details: relative to orexin-A as full agonist (100%)
T2 construct: expressed in transfected cells; host or cells: CHO (Chinese hamster ovary) cells, line CHOOX2R, co-expressing NFAT-luciferase
T2 sequence (O43614 1-444): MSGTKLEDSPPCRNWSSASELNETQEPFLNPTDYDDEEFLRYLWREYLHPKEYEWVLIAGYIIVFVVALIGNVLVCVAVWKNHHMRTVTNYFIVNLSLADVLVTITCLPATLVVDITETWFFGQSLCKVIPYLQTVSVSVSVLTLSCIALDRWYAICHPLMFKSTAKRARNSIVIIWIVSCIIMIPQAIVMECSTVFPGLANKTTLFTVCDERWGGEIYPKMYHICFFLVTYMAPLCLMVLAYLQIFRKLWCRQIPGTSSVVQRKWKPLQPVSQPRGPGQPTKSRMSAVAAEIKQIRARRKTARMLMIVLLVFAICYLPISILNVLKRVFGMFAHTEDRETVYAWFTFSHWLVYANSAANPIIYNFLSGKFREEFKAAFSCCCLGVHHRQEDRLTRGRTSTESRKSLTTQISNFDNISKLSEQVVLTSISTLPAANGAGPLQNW
Outline: as §1

C57BL/6 wild-type mouse = assay: Awakening effect on wild-type mouse by light period intraventricular administration (EEG/EMG hypnogram); assay type: in vivo; details: 10 nmol intraventricular at ZT6 (light period), hypnogram for 3 hr
From the text: Awakening Effect on Wild-Type Mouse by Light Period Intraventricular Administration of the Compound of the Present Invention
As the experiment animal, C57BL/6 lineage wild-type mouse (male) was used. The mice before and after 9-week-old (±1 week) underwent surgery for embedding electroencephalogram electrodes into the skull (Bregma: X=1.5; Y=0.6, Lambda: X=1.5; Y=0) and inserting electromyogram electrodes into the trapezius muscle under isoflurane anesthesia. The mice for intraventricular administration also underwent cannula embedding into lateral cerebral ventricle (Bregma: X=−0.9; Y=−0.3). From two weeks thereafter, the administration and electroencephalogram measurement were started. The experiment was conducted under a light-dark cycle environment in which the light period started at 9 (ZT0) and the dark period started at 21 (ZT12).
The test compound (compound of Example 40) (10 nmol; dissolved in 5% chromophore-containing saline) (5 μl) was injected at ZT6 into the lateral cerebral ventricle of wild-type mice under isoflurane anesthesia through cannula by using a microsyringe pump at a flow rate of 0.5 μl/min, and electroencephalogram and electromyogram was measured thereafter. The administration was started with 5% chromophore-containing saline (Vehicle) as a control, and then the test compound was administered. […]

| Compound | Response (%) OX2R (human OX2R; 0.1 μM test compound) | Response (%) OX2R (human OX2R; 1.0 μM test compound) | Response (%) OX2R (human OX2R; 10 μM test compound) | Response (%) OX1R (human OX1R; 0.1 μM test compound) | Response (%) OX1R (human OX1R; 1.0 μM test compound) | Response (%) OX1R (human OX1R; 10 μM test compound) | further results |
| --- | --- | --- | --- | --- | --- | --- | --- |
| COc1ccc(-c2cccc(C(=O)N(C)C)c2)cc1S(=O)(=O)Nc1cccc(NC(=O)Nc2cccc(N(C)C)c2)c1 [Example 40, 3′-(N-(3-(3-(3-(dimethylamino)phenyl)ureido)phenyl)sulfamoyl)-4′-methoxy-N,N-dimethyl-[1,1′-biphenyl]-3-carboxamide] | 77% | 60% | 52% |  |  |  | Emax at 0.1 µM (human OX1R; 0.1 μM test compound): < 5%; Emax at 1 µM (human OX1R; 1.0 μM test compound): < 5%; Emax at 10 µM (human OX1R; 10 μM test compound): < 5%; conscious time compared to Vehicle administration (C57BL/6 wild-type mouse): increased |
| CNc1cccc(NS(=O)(=O)c2cc(-c3cccc(C(=O)N(C)C)c3)ccc2OC)c1 [Example 95, 4′-methoxy-N,N-dimethyl-3′-(N-(3-(methylamino)phenyl)sulfamoyl)-[1,1′-biphenyl]-3-carboxamide] |  |  |  |  |  |  | Emax at 0.1 µM (human OX1R; test compound 0.1 μM): < 5%; Emax at 1 µM (human OX1R; test compound 1.0 μM): < 5%; Emax at 10 µM (human OX1R; test compound 10 μM): < 5%; Response (%) OX2R (human OX2R; test compound 0.1 μM): <5%; Response (%) OX2R (human OX2R; test compound 1.0 μM): 11%; Response (%) OX2R (human OX2R; test compound 10 μM): 68% |
| COc1ccc(-c2cccc(C(=O)N(C)C)c2)cc1S(=O)(=O)Nc1cccc(Nc2ccc3c(c2)OCO3)c1 [Example 36] | <5% | 63% | 93% | <5% | <5% | 10% |  |
| CCN(Cc1ccccc1)C(=O)c1ccc(OC)c(S(=O)(=O)Nc2cccc(NC(=O)Nc3ccc(N(C)C)cc3)c2)c1 [Example 110] |  |  |  |  |  |  | Response (%) OX1R (human OX1R; test compound 0.1 μM): <5%; Response (%) OX1R (human OX1R; test compound 1.0 μM): <5%; Response (%) OX1R (human OX1R; test compound 10 μM): <5%; Response (%) OX2R (human OX2R; test compound 0.1 μM): 38%; Response (%) OX2R (human OX2R; test compound 1.0 μM): 86%; Response (%) OX2R (human OX2R; test compound 10 μM): 109% |
| COc1ccccc1CNc1cccc(NS(=O)(=O)c2cc(-c3cccc(C(=O)N(C)C)c3)ccc2OC)c1 [Example 21] | <5% | 37% | 54% | <5% | <5% | 12% |  |
| CN(C)C(=O)c1cccc(-c2ccc(Cl)c(S(=O)(=O)Nc3cccc(NC(=O)Nc4cccc(N(C)C)c4)c3)c2)c1 [Example 118] |  |  |  |  |  |  | Response (%) OX1R (human OX1R; test compound 0.1 μM): 9%; Response (%) OX1R (human OX1R; test compound 1.0 μM): 8%; Response (%) OX1R (human OX1R; test compound 10 μM): 9%; Response (%) OX2R (human OX2R; test compound 0.1 μM): 11%; Response (%) OX2R (human OX2R; test compound 1.0 μM): 36%; Response (%) OX2R (human OX2R; test compound 10 μM): 71% |
| COc1ccc(-c2cccc(C(=O)N(C)C)c2)cc1S(=O)(=O)Nc1cccc(NC(=O)Nc2cccc(C)c2)c1 [Example 38] | 68% | 82% | 71% | <5% | <5% | <5% |  |
| COc1ccc(-c2cccc(C(=O)N(C)C)c2)cc1S(=O)(=O)Nc1ccc(NC(=O)Nc2cccc(N(C)C)c2)cc1 [Example 122] |  |  |  |  |  |  | Response (%) OX1R (human OX1R; test compound 0.1 μM): <5%; Response (%) OX1R (human OX1R; test compound 1.0 μM): <5%; Response (%) OX1R (human OX1R; test compound 10 μM): <5%; Response (%) OX2R (human OX2R; test compound 0.1 μM): 7%; Response (%) OX2R (human OX2R; test compound 1.0 μM): 7%; Response (%) OX2R (human OX2R; test compound 10 μM): 10% |
| COc1ccc(-c2cccc(C(=O)N(C)C)c2)cc1S(=O)(=O)Nc1cccc(NC(=O)c2ccncc2)c1 [Example 4] | <5% | <5% | 16% | 10% | 8% | <5% |  |
| COc1ccc(-c2cccc(C(=O)N(C)C)c2)cc1S(=O)(=O)Nc1cccc(NC(=O)C[S+]([O-])C(c2ccccc2)c2ccccc2)c1 (stereo not shown) [Example 13] | 11% | 117% | 109% | <5% | 63% | 107% |  |
| COc1cccc(NC(=O)Nc2cccc(NS(=O)(=O)c3cc(-c4cccc(C(=O)N(C)C)c4)ccc3OC)c2)c1 [Example 44] | 100% | 104% | 95% | <5% | <5% | 10% |  |
| COc1ccc(-c2cccc(C(=O)N(C)C)c2)cc1S(=O)(=O)Nc1cccc(NC(=S)Nc2ccccc2)c1 [Example 75, 4′-methoxy-N,N-dimethyl-3′-(N-(3-(3-phenylthioureido)phenyl)sulfamoyl)-[1,1′-biphenyl]-3-carboxamide] | 61% | 94% | 95% |  |  |  | Emax at 0.1 µM (human OX1R; 0.1 μM test compound): < 5%; Emax at 1 µM (human OX1R; 1.0 μM test compound): < 5%; Emax at 10 µM (human OX1R; 10 μM test compound): 30% |
| COc1ccc(-c2cccc(C(=O)N(C)C)c2)cc1S(=O)(=O)Nc1cccc(NC(=O)Nc2ccccc2Br)c1 [Example 43] | 102% | 105% | 104% | <5% | <5% | 10% |  |
| COc1ccc(-c2cccc(C(=O)N(C)C)c2)cc1S(=O)(=O)Nc1cccc(NC(=O)c2ccccc2)c1 [Example 1, 3′-(N-(3-benzamidophenyl)sulfamoyl)-4′-methoxy-N,N-dimethyl-[1,1′-biphenyl]-3-carboxamide] | <5% | 6% | 67% |  |  |  | Emax at 0.1 µM (human OX1R; 0.1 μM test compound): < 5%; Emax at 1 µM (human OX1R; 1.0 μM test compound): < 5%; Emax at 10 µM (human OX1R; 10 μM test compound): < 5% |
